Test results from PMC4818757, “Small molecule inhibitors of the Dishevelled‐CXXC5 interaction are new drug candidates for bone anabolic osteoporosis therapy” (EMBO Molecular Medicine, 2016).

Legend:
[1] = target: CYP C29 (so in the source); probably CYP2C9) (Homo sapiens, UniProt P11712); assay: Cytochrome P450 inhibition assay, C29
Text: Appendix Table S4. Cytochrome P450 (CYP) inhibition assay with 10 µ M KY-

TA-100 = conditions: TA-100, Without S-9 mix
Text: (§1) Appendix Table S3. Bacterial reverse mutation assay with KY-02327
(§2) a Number of revertant colonies of treated plate/Number of revertant colonies of
(§3) vehicle control plate (Maron & Ames, 1983).
(§4) b Negative control. Vehicle: DMSO

[2] = tested on: ovariectomized (OVX) mice; assay: OVX-induced osteoporosis mouse model; assay type: in vivo; conditions: KY‐02327 20 mpk oral, PTH 0.06 mpk subcutaneous
Procedure: Figure 6 Effects of KY‐02327 on OVX‐induced osteoporosis model mice • A–H Vehicle or 20 mg of KY‐02327 per kg of animal body weight (mpk) was orally administered or 0.06 mpk of the N‐terminal fragment of PTH (amino acids 1‐34) was subcutaneously injected into the Sham‐operated (Sham) or ovariectomized (OVX) mice on 5 sequential days per week for 4 weeks (n = 4). After calcein injection, the prepared femoral sections of the OVX mice were examined under fluorescence microscope to visualize integrated calcein (A, green, arrows). Nuclei were counterstained with DAPI (A, blue). Scale bars, 100 μm. Osteoblast numbers (B) and calcein double‐labeled surfaces (C) were measured in the femoral sections. The mouse femurs were analyzed using micro‐CT, and BMD (D) and BV/TV (E) were calculated from the micro‐CT data. The three‐dimensional images of femoral trabecular bone were reconstructed (F), and trabecular number (G) and trabecular separation (H) were calculated. Data Information: The data are the mean ± s.d. (error bars). Significance was assessed using Kruskal–Wallis test.
This animal study was approved by the Institutional Review Board of Severance Hospital, Yonsei University College of Medicine. The mice were housed in filter‐topped shoebox cages with a computerized environmental control system (MJ LTD, Seoul, Korea). The care and treatment of experimental animals were performed in accordance with institutional guidelines. The room temperature was maintained at 26.5°C with a relative humidity of approximately 40–70%. The mice were given a standard maintenance diet from Dae Han Bio Link (Daejeon, Korea). For OVX mouse experiments, the surgeries were performed with 8‐week‐old female BL6 mice under anesthesia with avertin (2,2,2‐tribromoethanol; Worthington Biochemical, Freehold, NJ) as described previously (Zahoor et al, 2014). After removing the hair, dorsal incisions were made into the dermal layers above both sides of the ovaries using dissection scissors. The connection between the fallopian tube and the uterine horn was cut, and the ovary was removed. The incision was then sutured with 3 single catgut stitches. Sham mice were used as controls. After 4 weeks, the OVX group was divided into three groups for oral administration of vehicle (saline containing 10% Tween‐60) or 20 mg of KY‐02327 per kg of animal body weight (mpk) of KY‐02327, or for subcutaneous injection of 0.06 mpk of N‐terminal fragment of PTH (amino acids 1–34), which were administered for 5 sequential days per week for 4 weeks. The animals were sacrificed, and the organs were harvested for analysis. For the calcein double‐labeling experiment (Pall et al, 1987), calcein (10 mpk in 2% sodium hydrocarbonate, pH 7.4) was injected twice, on the last day of the 2nd and 3rd week. All the mice were randomly assigned to each groups, and the investigators were blinded to the group allocation during the treatments and experiments.
The mouse femurs were scanned using a micro‐CT system (Skyscan 1072; Skyscan, Aartselaar, Belgium). The scanned image data were reconstructed to create 3D images and analyzed using the CT‐Analyzing Program (Skyscan). For femoral trabecular bone analysis, the femurs were scanned with a voxel size of 10 μm, beginning at the end of the growth plate and extending proximally along the diaphysis, and 80 continuous slices (beginning at 0.1 mm from the most proximal aspect of the growth plate in which both condyles were no longer visible) were selected for analysis.
The femurs of OVX mice and the calvariae of 4‐day‐old mice were fixed in 4% paraformaldehyde in PBS. The bones were then decalcified in 10 mM EDTA and embedded in paraffin. Five‐micrometer tissue sections were deparaffinized in 100% xylene followed by re‐hydration with sequential 100% to 50% ethanol washes. The sections were stained with hematoxylin and eosin (H&E), and light micrographs were captured using a SMZ645 Nikon microscope (Nikon, Tokyo, Japan). […]

TA-98 = conditions: TA-98, Without S-9 mix
Text: as §1, §2, §3, §4

Chain of CYP C29 (so in the source); probably CYP2C9) (P11712 whole entry): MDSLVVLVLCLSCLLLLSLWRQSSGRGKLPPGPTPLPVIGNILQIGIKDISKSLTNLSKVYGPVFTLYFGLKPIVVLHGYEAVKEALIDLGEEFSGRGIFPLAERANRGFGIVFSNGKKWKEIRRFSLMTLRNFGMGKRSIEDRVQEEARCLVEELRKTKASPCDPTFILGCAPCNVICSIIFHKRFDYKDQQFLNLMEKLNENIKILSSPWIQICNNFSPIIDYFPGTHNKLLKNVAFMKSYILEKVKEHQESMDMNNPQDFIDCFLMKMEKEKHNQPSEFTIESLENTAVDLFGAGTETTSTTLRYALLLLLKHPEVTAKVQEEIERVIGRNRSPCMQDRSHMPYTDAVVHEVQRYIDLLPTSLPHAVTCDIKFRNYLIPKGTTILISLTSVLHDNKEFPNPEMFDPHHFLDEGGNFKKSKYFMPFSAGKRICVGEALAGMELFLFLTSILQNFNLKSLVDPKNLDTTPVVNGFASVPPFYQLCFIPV

**Q.** How did the inhibition at 10 µM [1] turn out when `Nc1ccc(S(=O)(=O)Nc2ccnn2-c2ccccc2)cc1` [Sulfaphenazole, reference compound] was run?
**A.** The inhibition at 10 µM was 80.5%.

**Q.** Which results are given for `[N-]=[N+]=[N-].[Na+]` [S.A, Sodium azide, reference compound]?
**A.** Factor (revertant colonies treated plate / vehicle control plate) (TA-100): 5.6; Revertant colonies/plate (Mean) (TA-100; dose (g/plate): KY-02327 1000, S.A 1): 689 ± 20 colonies/plate

**Q.** What does the source list for “PTH: N‐terminal fragment of PTH (amino acids 1‐34) [reference compound]”?
**A.** destroyed trabecular bones (3D micro-CT images) ([2]; 4 weeks): rescued; mineral contents of the bone (BMD), femur, micro‐CT ([2]; 4 weeks): significantly increased; trabecular bone number ([2]; 4 weeks): increase; trabecular separation ([2]; 4 weeks): decrease; volume of bone (BV/TV) ([2]; 4 weeks, vs vehicle): increased; calcein double‐labeled surface ([2]; 5 days per week for 4 weeks): increased; new bone formation (calcein-labeled) in femur ([2]; 5 days per week for 4 weeks): recovered; number of osteoblasts ([2]; 5 days per week for 4 weeks): increased

**Q.** For `O=[N+]([O-])c1ccc2c(c1)Cc1ccccc1-2` [2-NF, 2-nitrofluorene, reference compound], which “Factor (revertant colonies treated plate / vehicle control plate)” value (TA-98) is on record?
**A.** Its value is 9.4.

**Q.** What about the “Revertant colonies/plate (Mean)” value (TA-98; dose (g/plate): KY-02327 1000, 2-NF 1) of the same compound?
**A.** The value was 178 ± 16 colonies/plate.
